Where “and” joins values, the source holds several entries; their conditions need not be identical. Equal values may be shown once. Each block holds one compound with its values, some of them ahead of it.
Tests used:
Mouse EL = target: T1, Mouse EL (Mus musculus, UniProt Q9WVG5); experiment: Endothelial Lipase Assay, cell surface lipase activity (mouse); assay type: cell-based; conditions: PLA1 substrate 10 μM, fluorescence reaction rate, several values in a cell are repeat determinations
T1 construct: host or cells: not described for mouse EL
T1 sequence (Q9WVG5 21-500): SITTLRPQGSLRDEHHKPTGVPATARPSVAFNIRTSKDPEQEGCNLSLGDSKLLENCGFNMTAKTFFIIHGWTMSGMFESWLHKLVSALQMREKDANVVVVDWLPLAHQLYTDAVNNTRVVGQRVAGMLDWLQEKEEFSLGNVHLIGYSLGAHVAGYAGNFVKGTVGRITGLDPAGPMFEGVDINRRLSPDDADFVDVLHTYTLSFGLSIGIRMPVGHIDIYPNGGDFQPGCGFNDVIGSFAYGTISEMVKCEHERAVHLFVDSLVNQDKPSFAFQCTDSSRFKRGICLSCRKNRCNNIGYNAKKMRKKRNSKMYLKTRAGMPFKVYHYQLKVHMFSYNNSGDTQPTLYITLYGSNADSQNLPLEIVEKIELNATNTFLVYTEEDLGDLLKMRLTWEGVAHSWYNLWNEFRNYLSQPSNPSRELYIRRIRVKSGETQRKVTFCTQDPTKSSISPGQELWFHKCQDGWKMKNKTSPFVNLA
Experimental: (§1) Endothelial Lipase Assay (Human/Mouse)
(§2) To assay for cell surface lipase activity, cells expressing human endothelial lipase (EL) or LPL were plated in CellBIND® 384-well plates (Corning, Lowell, Mass.) in 25 μL serum free medium at a density of 2000 cells/well. After 18-24 hours incubation at 37° C., the medium was removed and replaced with 15 μL assay buffer [Hank's Buffered Saline Solution with 25 mM HEPES pH 7.2] and 15 μL PLA1 for a final concentration of 10 μM using a Multidrop reagent dispenser. Fluorescence signal was monitored for 30 min at 37° C. on a Safire II plate reader in kinetic mode (60 cycles, kinetic interval: 30 seconds) with an excitation wavelength of 490 nm and an emission wavelength of 515 nm. Linear regression of the fluorescence intensity collected from 480 to 1500 seconds was used to calculate the reaction rate (the slope) and the slopes were used to calculate IC50 values where appropriate. The amount of BODIPY-labeled product generated was calculated at the 30 min time point as determined from standard curve analysis of purified BODIPY FL C5. In all studies using the inhibitor Ebelactone B, consistent results were obtained when it was dissolved as a stock in DMSO, immediately before use.

[1] = target: T2, human endothelial lipase (EL) (Homo sapiens, UniProt Q9Y5X9); experiment: Endothelial Lipase Assay, cell surface lipase activity (human); assay type: cell-based; conditions: cells expressing human EL, PLA1 substrate 10 μM, fluorescence reaction rate; several values in a cell are repeat determinations
T2 construct: host or cells: cells expressing human endothelial lipase
T2 sequence (Q9Y5X9 21-500): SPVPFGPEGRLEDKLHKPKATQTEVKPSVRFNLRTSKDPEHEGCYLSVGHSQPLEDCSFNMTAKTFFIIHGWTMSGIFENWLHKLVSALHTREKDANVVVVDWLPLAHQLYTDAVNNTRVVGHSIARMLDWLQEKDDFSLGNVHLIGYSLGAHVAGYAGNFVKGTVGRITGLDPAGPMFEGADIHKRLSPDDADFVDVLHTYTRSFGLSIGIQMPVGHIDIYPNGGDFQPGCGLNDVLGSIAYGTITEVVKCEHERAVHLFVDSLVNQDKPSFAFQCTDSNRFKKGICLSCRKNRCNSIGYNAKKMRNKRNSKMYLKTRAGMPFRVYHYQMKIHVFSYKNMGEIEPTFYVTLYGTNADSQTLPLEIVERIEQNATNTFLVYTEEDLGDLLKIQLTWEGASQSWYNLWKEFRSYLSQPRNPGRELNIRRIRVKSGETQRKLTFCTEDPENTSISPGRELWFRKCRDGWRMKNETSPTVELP
Experimental: as §1, §2

SMILES: CC(=O)Nc1ccc(CCCCCCC(=O)C(=O)NCc2nnc(-c3ccc(OCc4cccc(F)c4)cc3)s2)cn1 [Compound 157]
IC50 (Mouse EL): 1.28 µM
IC50 [1]: 0.511 µM

SMILES: O=C(CCCCCCc1ccc(F)nc1)C(=O)NCc1nnc(-c2ccc(OCc3ccccn3)cc2)s1 [Compound 167]
IC50 (Mouse EL): 0.217 µM
IC50 [1]: 0.36 µM

SMILES: O=C(CCCCCCc1ccccc1)C(=O)NCc1nnc(-c2ccc3c(=O)n4c(nc3c2)CCC4)o1 [Compound 19]
IC50 (Mouse EL): 3.05 µM
IC50 [1]: 5.38 µM

SMILES: O=C(CCCCCCc1ccc(F)cc1)C(=O)NCc1nnc(-c2ccc3ccccc3c2)o1 [Compound 30]
IC50 (Mouse EL): 0.205 µM
IC50 [1]: 0.523 µM

SMILES: O=C(CCCCCCc1ccccc1)C(=O)NCc1nnc(-c2ccc(OCc3ccncc3)cc2)s1 [Compound 140, 2-oxo-8-phenyl-N-((5-(4-(pyridin-4-ylmethoxy)phenyl)-1,3,4-thiadiazol-2-yl)methyl)octanamide]
IC50 (Mouse EL): 0.029 µM
IC50 [1]: 0.032 µM

SMILES: O=C(CCCCCCc1ccccc1)C(=O)NCc1nnc(-c2cccc(Oc3ccccc3)c2)o1 [Compound 58]
IC50 (Mouse EL): 1.72 µM
IC50 [1]: 4.89 µM

SMILES: O=C(CCCCCCc1ccccc1)C(=O)NCc1nnc(-c2ccc(OCc3ccnc(F)c3)cc2)s1 [Compound 152]
IC50 (Mouse EL): 0.207 µM and 0.048 µM
IC50 [1]: 0.115 µM and 0.042 µM

SMILES: O=C(CCCCCCc1ccccc1)C(=O)NCc1nnc(-c2ccc(OCc3ccccc3F)cc2)s1 [Compound 145]
IC50 (Mouse EL): 0.168 µM
IC50 [1]: 0.312 µM

SMILES: O=C(CCCCCNc1ncccn1)C(=O)NCc1nnc(-c2ccccc2)o1 [Compound 148]
IC50 (Mouse EL): 14.7 µM
IC50 [1]: 12.3 µM

SMILES: N#Cc1cccc(COc2ccc(-c3nnc(CNC(=O)C(=O)CCCCCCc4ccccc4)s3)cc2)c1 [Compound 144]
IC50 (Mouse EL): 0.249 µM
IC50 [1]: 0.421 µM

SMILES: O=C(CCCCCCc1ccccc1)C(=O)NCc1nnc(-c2ccc(OCc3cccc(F)c3)cc2)o1 [Compound 84]
IC50 (Mouse EL): 0.2 µM
IC50 [1]: 0.235 µM

SMILES: NC(=O)c1cncc(CCCCCCC(=O)C(=O)NCc2nnc(-c3ccc(Oc4ccccc4)cc3)o2)c1 [Compound 142]
IC50 (Mouse EL): 0.897 µM
IC50 [1]: 1.58 µM

SMILES: Cc1ncsc1CCCCCCC(=O)C(=O)NCc1nnc(-c2ccc(OCc3cccc(F)c3)cc2)s1 [Compound 154, N-((5-(4-((3-fluorobenzyl)oxy)phenyl)-1,3,4-thiadiazol-2-yl)methyl)-8-(4-methylthiazol-5-yl)-2-oxooctanamide]
IC50 (Mouse EL): 0.047 µM
IC50 [1]: 0.036 µM

SMILES: O=C(CCCCCOc1cccc(Cl)c1)C(=O)NCc1nnc(-c2ccc(Oc3ccccc3)cc2)s1 [Compound 134]
IC50 (Mouse EL): 0.243 µM
IC50 [1]: 0.604 µM

SMILES: O=C(CCCCCCc1ccccc1)C(=O)NCc1nnc(-c2ccc(OCc3ccccc3F)cc2)o1 [Compound 85]
IC50 (Mouse EL): 0.169 µM
IC50 [1]: 0.223 µM

SMILES: CC(C)(C)OC(=O)c1cccc(COc2ccc(-c3nnc(CNC(=O)C(=O)CCCCCCc4ccccc4)o3)cc2)c1 [Compound 125]
IC50 (Mouse EL): 0.993 µM
IC50 [1]: 2.58 µM

SMILES: O=C(CCCCCCc1ccccc1)C(=O)NCc1nnc(-c2ccc(OCc3cccnc3)cc2)s1 [Compound 138]
IC50 (Mouse EL): 0.058 µM and 0.079 µM
IC50 [1]: 0.055 µM and 0.108 µM

SMILES: CN(Cc1ccc(F)c(F)c1)c1ccc(-c2nnc(CNC(=O)C(=O)CCCCCCc3ccccc3)o2)cc1 [Compound 110]
IC50 (Mouse EL): 0.346 µM
IC50 [1]: 0.677 µM

SMILES: O=C(CCCCCCc1ccccc1)C(=O)NCc1nnc(-c2ccccc2F)o1 [Compound 12]
IC50 (Mouse EL): 1.76 µM
IC50 [1]: 2.1 µM

SMILES: O=C(CCCCCc1ccc(F)cc1)C(=O)NCc1nnc(-c2ccc3ccccc3c2)o1 [Compound 38]
IC50 (Mouse EL): 0.475 µM
IC50 [1]: 0.613 µM

SMILES: O=C(CCCCCCc1ccc(F)nc1)C(=O)NCc1nnc(-c2ccc(OCc3cccc(F)c3)cc2)s1 [Compound 165]
IC50 (Mouse EL): 0.048 µM
IC50 [1]: 0.048 µM

SMILES: Cc1ncsc1CCCCCCC(=O)C(=O)NCc1nnc(-c2ccc(OCc3ccncc3)cc2)s1 [Compound 166]
IC50 (Mouse EL): 0.479 µM
IC50 [1]: 0.809 µM

SMILES: O=C(CCCCCCc1ccccc1)C(=O)NCc1nnc(-c2ccc(NCc3ccc(F)c(F)c3)cc2)o1 [Compound 118]
IC50 (Mouse EL): 0.476 µM
IC50 [1]: 0.675 µM

SMILES: O=C(CCCCCCc1ccccc1)C(=O)NCc1nnc(-c2ccc(OCc3ccncc3F)cc2)s1 [Compound 161]
IC50 (Mouse EL): 0.037 µM
IC50 [1]: 0.093 µM

SMILES: O=C(CCCCCCc1ccc2nc(Cl)ccc2c1)C(=O)NCc1nnc(-c2ccccc2)o1 [Compound 50]
IC50 (Mouse EL): 0.267 µM
IC50 [1]: 0.564 µM

SMILES: CN(C)C(=O)c1cccc(COc2ccc(-c3nnc(CNC(=O)C(=O)CCCCCCc4ccccc4)s3)cc2)c1 [Compound 150]
IC50 (Mouse EL): 0.048 µM
IC50 [1]: 0.092 µM

Second part, the compound after the results:

IC50 (Mouse EL): 0.366 µM
IC50 [1]: 0.255 µM
SMILES: O=C(CCCCCCc1ccccc1)C(=O)NCc1nnc(-c2ccc(Oc3cccc(Cl)c3)cc2)o1 [Compound 66]

IC50 (Mouse EL): 1.47 µM
IC50 [1]: 2.53 µM
SMILES: Cc1ccc(-c2nnc(CNC(=O)C(=O)CCCCCc3ccc(-c4ccccc4)cc3)o2)cc1 [Compound 37]

IC50 (Mouse EL): 3.03 µM
IC50 [1]: 3.19 µM
SMILES: Cc1ccc(-c2nnc(CNC(=O)C(=O)CCCCCOc3ccccc3)o2)cc1 [Compound 47]

IC50 (Mouse EL): 1.71 µM
IC50 [1]: 1.96 µM
SMILES: O=C(CCCCCOc1ccccc1)C(=O)NCc1nnc(-c2ccc3ccccc3c2)o1 [Compound 48]

IC50 (Mouse EL): 0.333 µM and 0.235 µM and 0.269 µM
IC50 [1]: 0.353 µM and 0.319 µM and 0.468 µM
SMILES: Cc1ccc(-c2nnc(CNC(=O)C(=O)CCCCCCc3ccccc3)o2)cc1 [Compound 25]

IC50 (Mouse EL): 19.9 µM
IC50 [1]: 5.48 µM
SMILES: O=C(CCCCCOc1c(F)cccc1F)C(=O)NCc1nnc(-c2ccc(OCc3ccccc3)cc2)o1 [Compound 101]

IC50 (Mouse EL): 0.196 µM
IC50 [1]: 0.178 µM
SMILES: O=C(CCCCCCc1ccccc1)C(=O)NCc1nnc(-c2ccc(OCc3ccccn3)cc2)o1 [Compound 88]

IC50 (Mouse EL): 1.02 µM
IC50 [1]: 0.735 µM
SMILES: O=C(CCCCCCc1ccccc1)C(=O)NCc1nnc(-c2ccc(F)cc2)o1 [Compound 15]

IC50 (Mouse EL): 6.12 µM
IC50 [1]: 5.45 µM
SMILES: COc1cccc(OCCCCCC(=O)C(=O)NCc2nnc(-c3ccccc3)o2)c1 [Compound 63]

IC50 (Mouse EL): 1.05 µM and 0.864 µM and 0.708 µM
IC50 [1]: 0.952 µM and 0.836 µM and 0.69 µM
SMILES: O=C(CCCCCCc1ccccc1)C(=O)NCc1nnc(-c2ccccc2)o1 [Compound 1, 2-oxo-8-phenyl-N-((5-phenyl-1,3,4-oxadiazol-2-yl)methyl)octanamide]

IC50 (Mouse EL): 0.072 µM
IC50 [1]: 0.156 µM
SMILES: O=C(CCCCCCc1ccccc1)C(=O)NCc1nnc(-c2ccc(OCc3ccncc3)cc2)o1 [Compound 86]

IC50 (Mouse EL): 0.666 µM
IC50 [1]: 1.3 µM
SMILES: O=C(CCCCCOc1cccc(Cl)c1)C(=O)NCc1nnc(-c2ccc(OCc3ccccc3)cc2)o1 [Compound 96]

IC50 (Mouse EL): 9.98 µM
IC50 [1]: 10.9 µM
SMILES: COc1cccc(OCCCCCC(=O)C(=O)NCc2nnc(-c3cccc(Oc4ccccc4)c3)o2)c1 [Compound 64]

IC50 (Mouse EL): 2.72 µM
IC50 [1]: 5.2 µM
SMILES: O=C(CCCCCOc1cccc(F)c1)C(=O)NCc1nnc(-c2ccc3c(c2)Oc2ccccc2O3)o1 [Compound 62]

IC50 (Mouse EL): 2.29 µM
IC50 [1]: 3.25 µM
SMILES: O=C(CCCCCOc1cccc(F)c1)C(=O)NCc1nnc(-c2cccc(Oc3ccccc3)c2)o1 [Compound 56]

IC50 (Mouse EL): 0.774 µM
IC50 [1]: 1.73 µM
SMILES: O=C(CCCCCOc1cc(F)ccc1F)C(=O)NCc1nnc(-c2ccc(Oc3ccccc3)cc2)o1 [Compound 98]

IC50 (Mouse EL): 5.91 µM
IC50 [1]: 4.74 µM
SMILES: O=C(CCCCCOc1cccc(F)c1)C(=O)NCc1nnc(-c2ccccc2)o1 [Compound 53]

IC50 (Mouse EL): 0.634 µM
IC50 [1]: 0.936 µM
SMILES: O=C(CCCCCOc1cc(F)ccc1F)C(=O)NCc1nnc(-c2ccc(OCc3ccccc3)cc2)o1 [Compound 94]

IC50 (Mouse EL): 0.216 µM
IC50 [1]: 0.345 µM
SMILES: O=C(CCCCCCc1ccccc1)C(=O)NCc1nnc(-c2ccc(OCc3ccncn3)cc2)o1 [Compound 107]

IC50 (Mouse EL): 0.214 µM
IC50 [1]: 0.6 µM
SMILES: O=C(CCCCCCc1ccccc1)C(=O)NCc1nnc(-c2ccc(OCc3ccc(F)cc3)cc2)o1 [Compound 80]

IC50 (Mouse EL): 0.187 µM
IC50 [1]: 0.471 µM
SMILES: O=C(CCCCCCc1ccccc1)C(=O)NCc1nnc(-c2ccc(OCc3cccc(F)n3)cc2)o1 [Compound 121]

Reference: patent publication US8476302B2, “α-ketoamide derivatives useful endothelial lipase inhibitors” (Janssen Pharmaceutica N.V., priority 2010, dated 2013)
